Tests used:
[1] = test system: Jurkat IL2; assay: Jurkat IL2 IC50; format: cell-based; conditions: Homo sapiens, Jurkat cells
[2] = biological target: BTK (Homo sapiens (Human), UniProt Q06187); assay: IC50 against BTK; format: biochemical
[3] = biological target: JAK3 (Homo sapiens (Human), UniProt P52333); assay: IC50 against JAK3; format: biochemical
[4] = biological target: ITK (Homo sapiens (Human), UniProt Q08881); assay: IC50 against ITK; format: biochemical
[5] = biological target: TXK (Homo sapiens (Human), UniProt P42681); assay: IC50 against TXK; format: biochemical; conditions: for TXK/ITK: ratio of TXK IC50 to ITK IC50
TXK, sequence (P42681 whole entry, species assumed): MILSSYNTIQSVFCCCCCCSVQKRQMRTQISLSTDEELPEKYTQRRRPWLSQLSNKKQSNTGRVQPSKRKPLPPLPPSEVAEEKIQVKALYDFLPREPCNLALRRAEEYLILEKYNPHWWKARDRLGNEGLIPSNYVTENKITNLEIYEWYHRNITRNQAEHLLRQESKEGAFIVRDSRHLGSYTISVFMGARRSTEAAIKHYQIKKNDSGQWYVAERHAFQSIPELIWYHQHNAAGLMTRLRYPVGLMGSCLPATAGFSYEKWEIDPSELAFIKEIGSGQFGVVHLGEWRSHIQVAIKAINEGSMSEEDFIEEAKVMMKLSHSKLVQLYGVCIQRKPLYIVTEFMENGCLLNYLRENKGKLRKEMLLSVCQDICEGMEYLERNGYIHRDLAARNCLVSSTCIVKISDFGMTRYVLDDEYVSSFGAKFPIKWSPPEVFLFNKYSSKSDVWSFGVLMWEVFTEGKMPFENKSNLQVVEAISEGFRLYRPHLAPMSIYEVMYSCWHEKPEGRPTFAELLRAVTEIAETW

[6] = Mouse PO PK; conditions: in vivo, 10 mg/kg, PO 10 mpk
[7] = Rat PO PK; conditions: in vivo, 6 mg/kg, PO 6 mpk

JAK3, sequence (P52333 whole entry, species assumed): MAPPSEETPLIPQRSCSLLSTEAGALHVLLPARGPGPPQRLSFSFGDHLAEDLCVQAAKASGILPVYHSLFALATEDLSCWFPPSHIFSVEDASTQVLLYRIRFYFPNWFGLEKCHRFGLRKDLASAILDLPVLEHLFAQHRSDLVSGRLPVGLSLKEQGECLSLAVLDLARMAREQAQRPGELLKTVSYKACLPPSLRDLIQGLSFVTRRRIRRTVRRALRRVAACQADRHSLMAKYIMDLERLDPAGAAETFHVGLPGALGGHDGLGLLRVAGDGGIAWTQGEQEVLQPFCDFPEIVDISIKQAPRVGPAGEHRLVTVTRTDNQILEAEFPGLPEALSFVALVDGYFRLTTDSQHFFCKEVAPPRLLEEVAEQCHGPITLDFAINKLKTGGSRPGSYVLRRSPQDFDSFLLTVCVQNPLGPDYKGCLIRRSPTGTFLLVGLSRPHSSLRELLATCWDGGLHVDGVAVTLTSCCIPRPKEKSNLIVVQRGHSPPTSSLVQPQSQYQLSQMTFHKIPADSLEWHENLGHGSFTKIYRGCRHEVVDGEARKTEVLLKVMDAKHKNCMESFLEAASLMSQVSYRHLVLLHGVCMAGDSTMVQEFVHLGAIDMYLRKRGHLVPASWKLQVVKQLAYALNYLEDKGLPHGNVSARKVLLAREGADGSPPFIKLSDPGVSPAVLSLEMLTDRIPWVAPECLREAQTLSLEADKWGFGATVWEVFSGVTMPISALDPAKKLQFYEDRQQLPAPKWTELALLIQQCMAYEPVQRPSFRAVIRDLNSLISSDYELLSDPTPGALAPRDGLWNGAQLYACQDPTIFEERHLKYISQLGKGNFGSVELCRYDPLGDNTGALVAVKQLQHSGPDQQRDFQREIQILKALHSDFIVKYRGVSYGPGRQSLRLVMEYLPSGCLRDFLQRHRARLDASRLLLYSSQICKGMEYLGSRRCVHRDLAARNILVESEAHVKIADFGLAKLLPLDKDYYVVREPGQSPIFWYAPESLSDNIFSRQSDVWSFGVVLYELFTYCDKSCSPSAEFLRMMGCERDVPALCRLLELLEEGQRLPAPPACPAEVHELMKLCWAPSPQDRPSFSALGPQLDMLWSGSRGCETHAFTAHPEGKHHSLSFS
ITK, sequence (Q08881 whole entry): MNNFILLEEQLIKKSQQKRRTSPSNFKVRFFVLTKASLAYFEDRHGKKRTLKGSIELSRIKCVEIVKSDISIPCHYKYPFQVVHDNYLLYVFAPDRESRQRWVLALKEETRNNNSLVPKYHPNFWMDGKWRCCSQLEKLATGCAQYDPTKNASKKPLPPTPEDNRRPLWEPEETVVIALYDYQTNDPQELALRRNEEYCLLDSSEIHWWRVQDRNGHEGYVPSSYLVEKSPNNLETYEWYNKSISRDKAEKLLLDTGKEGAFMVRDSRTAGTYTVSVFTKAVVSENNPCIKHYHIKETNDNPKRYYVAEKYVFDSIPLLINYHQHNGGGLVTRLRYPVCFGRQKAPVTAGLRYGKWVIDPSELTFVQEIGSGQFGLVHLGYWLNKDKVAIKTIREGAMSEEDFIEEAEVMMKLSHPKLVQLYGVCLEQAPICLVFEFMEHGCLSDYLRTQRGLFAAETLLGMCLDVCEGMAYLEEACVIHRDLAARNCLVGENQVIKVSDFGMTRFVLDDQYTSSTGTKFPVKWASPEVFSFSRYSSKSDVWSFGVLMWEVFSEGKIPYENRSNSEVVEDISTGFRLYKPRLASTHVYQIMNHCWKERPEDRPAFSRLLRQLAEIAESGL
BTK, sequence (Q06187 whole entry, species assumed): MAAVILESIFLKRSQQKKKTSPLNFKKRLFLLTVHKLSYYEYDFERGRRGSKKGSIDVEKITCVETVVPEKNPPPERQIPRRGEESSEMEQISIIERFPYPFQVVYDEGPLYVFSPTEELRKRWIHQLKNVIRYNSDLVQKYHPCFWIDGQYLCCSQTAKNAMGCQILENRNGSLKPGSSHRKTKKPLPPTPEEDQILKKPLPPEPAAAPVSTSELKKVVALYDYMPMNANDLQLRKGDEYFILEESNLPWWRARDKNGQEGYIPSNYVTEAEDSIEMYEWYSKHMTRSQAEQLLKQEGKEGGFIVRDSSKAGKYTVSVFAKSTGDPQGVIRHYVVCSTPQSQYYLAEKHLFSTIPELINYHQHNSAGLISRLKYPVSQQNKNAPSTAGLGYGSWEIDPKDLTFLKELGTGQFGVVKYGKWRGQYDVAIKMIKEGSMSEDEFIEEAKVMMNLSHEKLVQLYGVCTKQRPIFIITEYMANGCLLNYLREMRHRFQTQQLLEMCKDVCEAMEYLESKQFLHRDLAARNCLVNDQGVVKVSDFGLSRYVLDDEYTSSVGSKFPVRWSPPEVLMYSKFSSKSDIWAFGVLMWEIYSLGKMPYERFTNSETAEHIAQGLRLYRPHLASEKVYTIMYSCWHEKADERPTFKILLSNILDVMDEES

Row | IC50 [1] [nM] | IC50 [2] [nM] | IC50 [3] [nM] | IC50 [4] [nM] | IC50 [5] [nM] | TXK/ITK [5] | AUC(0-t) [6] [ng·h/mL] | Cmax [6] [ng/mL] | bioavailability [6] [%] | AUC(0-t) [7] [ng·h/mL] | Cmax [7] [ng/mL] | bioavailability [7] [%] | SMILES
1 | 33 | 10 to 100 | 10 to 100 | < 10 | < 10 | 8.3141 | 419 | 527 | 20 |  |  |  | C=CC(=O)N1CCN(C(=O)c2cc(Sc3cnc(NC(=O)c4ccsc4)s3)c(C)cc2OC)CC1 [Compound 90]
2 | 53 | 100 to 1000 | 100 to 1000 | < 10 | 10 to 100 | 22.223 | 215 | 292 | 10.5 | 18.1 | 148 | 18.1 | C=CC(=O)N1CCN(C(=O)c2cc(Sc3cnc(NC(=O)C4CC4)s3)c(C)cc2OC)C[C@H]1C [Compound 21]
3 | 31 | 100 to 1000 | 1000 to 10000 |  | 100 to 1000 |  | 226 | 368 | 9.8 | 12.5 | 75 | 12.5 | C=CC(=O)N1CCCN(C(=O)c2cc(Sc3cnc(NC(=O)C4CC4)s3)c(C)cc2OC)C[C@H]1C [Compound 44]
4 | 100 | 100 to 1000 | 1000 to 10000 | < 10 | 1000 to 10000 | 239.91 |  |  |  | 0.4 | 15.7 | 0.4 | C=CC(=O)N1CCCN(C(=O)c2cc(Sc3cnc(NC(=O)c4cccc(CN(C)C)c4)s3)c(C)cc2OC)CC1 [Compound 33]
5 | 10 | 100 to 1000 | 100 to 1000 | < 10 | < 10 | 7.378 | 335 | 613 | 20.1 | 10.9 | 97 | 10.9 | C=CC(=O)N1CCN(C(=O)c2cc(Sc3cnc(NC(=O)C4CC4)s3)c(C)cc2OC)CC1 [Compound 1]
6 | 36 | 100 to 1000 | 1000 to 10000 | < 10 | 1000 to 10000 | 230.63 |  |  |  | 3.4 | 25.2 | 3.4 | C=CC(=O)N1CCCN(C(=O)c2cc(Sc3cnc(NC(=O)c4ccc(F)c(CN(C)C)c4)s3)c(C)cc2OC)CC1 [Compound 50]
7 |  | 100 to 1000 | 1000 to 10000 | < 10 | 10 to 100 | 23.3 |  |  |  |  |  |  | C=CC(=O)N1CCN(C(=O)c2cc(Sc3cnc(NC(=O)c4cnn(CCN(C)C)c4)s3)c(C)cc2OC)C[C@H]1CC [Compound 116]
8 |  | 100 to 1000 | 100 to 1000 | < 10 | 100 to 1000 | 16.033 |  |  |  |  |  |  | C=CC(=O)N1CCCN(C(=O)c2cc(Sc3cnc(NC(=O)C4CC4)s3)c(C)cc2C)CC1 [Compound 74]
9 |  | 100 to 1000 | 1000 to 10000 | 10 to 100 | 100 to 1000 | 14.201 |  |  |  |  |  |  | C=CC(=O)N1CCN(C(=O)c2cc(Sc3cnc(NC(=O)c4ccccn4)s3)c(C)cc2OC)CC1 [Compound 95]
10 |  | 10 to 100 | 100 to 1000 | < 10 | 10 to 100 | 12.1 |  |  |  |  |  |  | C=CC(=O)N1CCN(C(=O)c2cc(Sc3cnc(NC(=O)c4ccsc4)s3)c(C)cc2OC)C[C@H]1CC [Compound 113]
11 |  | 10 to 100 | 1000 to 10000 | < 10 | 100 to 1000 | 29.58 |  |  |  |  |  |  | C=CC(=O)N1CCCN(C(=O)c2cc(Sc3cnc(Nc4ccccn4)s3)c(C)cc2OC)C[C@H]1C(C)C [Compound 147, (R)-l-(2-isopropyl-4-(2-methoxy-4-methyl-5-((2-(pyridin-2-ylamino)thiazol-5-yl)thio)benzoyl)-1,4-diazepan-1-yl)prop-2-en-1-one]
12 |  | 100 to 1000 | 10 to 100 | < 10 | 10 to 100 | 8.1619 |  |  |  |  |  |  | C=CC(=O)N1CCN(C(=O)c2cc(Sc3cnc(NC(=O)C4CC4)s3)c(Cl)cc2C)CC1 [Compound 80]
13 |  | ≥ 10000 | 1000 to 10000 | ≥ 10000 | 1000 to 10000 | 0.634 |  |  |  |  |  |  | C=CC(=O)N1CCN(C(=O)c2cc(Sc3cnc(NC4CC4)s3)c(C)cc2OC)CC1 [Compound 67]
14 |  | ≥ 10000 | 1000 to 10000 | 100 to 1000 | ≥ 10000 | 46.6 |  |  |  |  |  |  | C=CC(=O)N1CCCN(C(=O)c2cc(Sc3cnc(NC(=O)N(C)C)s3)c(C)cc2OC)C[C@H]1C [Compound 110]
15 |  | 100 to 1000 | 100 to 1000 | < 10 | 10 to 100 | 12.1 |  |  |  |  |  |  | C=CC(=O)N1CCN(C(=O)c2cc(Sc3cnc(NC(=O)c4cnn(C)c4)s3)c(C)cc2C)CC1 [Compound 108]
16 |  | 1000 to 10000 | 100 to 1000 | < 10 | 100 to 1000 | 19.042 |  |  |  |  |  |  | C=CC(=O)N1CCN(C(=O)c2cc(Sc3cnc(NC(=O)C4CC4)s3)c(Cl)cc2C)C[C@H]1C [Compound 81]
17 |  | ≥ 10000 | ≥ 10000 | ≥ 10000 | ≥ 10000 | 1 |  |  |  |  |  |  | C=CC(=O)N1CCN(C(=O)c2cc(Sc3cnc(NC(=O)C4CC4)s3)c(C)cn2)CC1 [Compound 76]
18 |  | ≥ 10000 | ≥ 10000 | 100 to 1000 | 1000 to 10000 | 61.086 |  |  |  |  |  |  | C=CC(=O)N1CCCN(C(=O)c2cc(Sc3cnc(NC(=O)C4CC4)s3)cc(C)c2C)C[C@H]1C [Compound 63]
19 |  | 100 to 1000 | 100 to 1000 | 10 to 100 | 100 to 1000 | 14.784 |  |  |  |  |  |  | C=CC(=O)N1CCN(C(=O)c2cc(Sc3cnc(NC(C)=O)s3)c(C)cc2OC)C[C@@H]1C [Compound 12]
20 |  | < 10 | 10 to 100 | < 10 | < 10 | 3.86 |  |  |  |  |  |  | C=CC(=O)N1CCC2(C1)CN(C(=O)c1cc(Sc3cnc(NC(=O)c4ccsc4)s3)c(C)cc1OC)C2 [Compound 145, N-(5-((5-(6-acryloyl-2,6-diazaspiro[3.4]octane-2-carbonyl)-4-methoxy-2-methylphenyl)thio)thiazol-2-yl)thiophene-3-carboxamide]
21 |  | < 10 | 10 to 100 | < 10 | < 10 | 1.4139 |  |  |  |  |  |  | C=CC(=O)N1C[C@@H]2C[C@H]1CN2C(=O)c1cc(Sc2cnc(NC(=O)C3CC3)s2)c(C)cc1OC [Compound 23]
22 |  | ≥ 10000 | ≥ 10000 | 100 to 1000 | 1000 to 10000 | 1.1846 |  |  |  |  |  |  | C=CC(=O)N1CCCN(C(=O)c2cc(Sc3cnc(NC(=O)C4CC4)s3)c(C)cc2OC)[C@@H](C)C1 [Compound 72]
23 |  | 10 to 100 | 100 to 1000 | < 10 | 10 to 100 | 46.0 |  |  |  |  |  |  | C=CC(=O)N1CCN(C(=O)c2cc(Sc3cnc(NC(=O)c4cccc(CN(C)C)c4)s3)c(C)cc2C)C[C@H]1CC [Compound 129]

Row | SMILES | IC50 [1] [nM] | IC50 [2] [nM] | IC50 [3] [nM] | IC50 [4] [nM] | IC50 [5] [nM] | TXK/ITK [5] | AUC(0-t) [6] [ng·h/mL] | Cmax [6] [ng/mL] | bioavailability [6] [%] | AUC(0-t) [7] [ng·h/mL] | Cmax [7] [ng/mL] | bioavailability [7] [%]
24 | C=CC(=O)N1C[C@H]2CC[C@@H](C1)N2C(=O)c1cc(Sc2cnc(NC(C)=O)s2)c(C)cc1OC [Compound 7] |  | 10 to 100 | 10 to 100 | < 10 | 10 to 100 | 11.993 |  |  |  |  |  | 

— patent US11008314B2, “Compounds and methods for modulating interleukin-2-inducible t-cell kinase” (CORVUS PHARMACEUTICALS, INC., priority 2016, dated 2021)
